Biological target: Sodium-dependent dopamine transporter (Rattus norvegicus, UniProt P23977)
Assay: The compound was tested for binding affinity towards dopamine transporter in rat caudate putamen
Type: tissue-based

Sequence of Sodium-dependent dopamine transporter (P23977 whole entry): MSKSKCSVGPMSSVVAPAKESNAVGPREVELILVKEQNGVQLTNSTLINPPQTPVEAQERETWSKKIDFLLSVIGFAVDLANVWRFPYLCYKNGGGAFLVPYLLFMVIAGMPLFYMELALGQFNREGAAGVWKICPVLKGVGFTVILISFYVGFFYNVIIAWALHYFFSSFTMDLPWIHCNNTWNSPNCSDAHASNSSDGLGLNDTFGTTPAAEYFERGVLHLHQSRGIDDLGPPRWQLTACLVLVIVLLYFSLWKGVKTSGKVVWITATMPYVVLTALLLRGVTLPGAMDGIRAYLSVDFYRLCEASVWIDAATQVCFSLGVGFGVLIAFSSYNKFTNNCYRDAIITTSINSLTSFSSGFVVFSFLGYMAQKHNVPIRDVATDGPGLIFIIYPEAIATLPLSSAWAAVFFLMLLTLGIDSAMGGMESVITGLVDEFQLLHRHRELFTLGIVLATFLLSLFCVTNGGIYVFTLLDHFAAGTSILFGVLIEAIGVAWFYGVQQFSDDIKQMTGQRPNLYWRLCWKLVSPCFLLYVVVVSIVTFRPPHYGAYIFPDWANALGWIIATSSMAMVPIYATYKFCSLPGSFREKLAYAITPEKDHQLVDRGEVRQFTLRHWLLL

| SMILES | Ki |
| --- | --- |
| [N-]=[N+]=Nc1ccc(CCCCN2[C@@H]3CC[C@H]2C[C@@H](OC(c2ccc(F)cc2)c2ccc(F)cc2)C3)cc1I | 159 nM |
| Nc1ccc(CCCCN2[C@@H]3CC[C@H]2C[C@@H](OC(c2ccc(F)cc2)c2ccc(F)cc2)C3)cc1 | 29.7 nM |

— ChEMBL document CHEMBL1129808, “A novel photoaffinity label for the dopamine transporter based on N-substituted 3-[bis(4-fluorophenyl)methoxy]tropane” (Bioorg Med Chem Lett, 1997)
